In data set [1] the test system is Sorghum. Description: Ex46 PRE sorghum injury 7, 14, 21, 28 DAT. Particulars: rate in the words. As to the method:
Treatments were applied to sorghum at the time of planting using Pennington soil. Each treatment was replicated four times. Soil was watered before and after application for herbicide activation. Plants were watered and fertilized routinely. […] Visual percent crop injury was recorded at 7, 14, 21, and 28 days after treatment using a scale of 0 (no injury) to 100 (complete plant death).

In data set [2] the test system is weeds; sweet corn, yellow corn, and sorghum. Description: Ex31 PRE greenhouse. The class given is in vivo. Particulars: weed and rate in the words. The source says: Flats were watered and fertilized routinely after treatment application.
Data set [3] has as its system weeds; Sugarcane (CTC20). Description: Ex23 PRE greenhouse. Particulars: 28 DAT, weed and rate in the words. As to the method:
(Ipomoea spp). The tested crop in this study was Sugarcane (CTC20).
Sugarcane was direct seeded into 6″ plastic pots using 3-4″ sugarcane setts, oriented bud up, with bud leaf shield removed. 2,4 DC and sulfentrazone were applied alone or combined as tank-mix at each rate mentioned below. […] Treatments were replicated 3 times. […] Thereafter flats were watered and fertilized routinely. […] Visual percent sugarcane injury was recorded at 21 and 28 DAT, using a scale of 0 (no injury, observed as bleaching, stunting or necrosis) to 100 (complete plant death).

The subject of data set [4] is velvetleaf (VL). Description: Ex5 PRE greenhouse, % control. It counts as in vivo, Abutilon theophrasti. Particulars: 28 DAT, g ai/ha by row: r10-26 2,4-DC 50/100/200 (3 rows each) + mesotrione 25/50/100 (cycling). As for the experimental part:
(§1) Test compositions containing 2,4-DC Example 1C and mesotrione (Callisto® Herbicide, 40% active ingredient, Syngenta) and mixtures of 2-(2,4-dichlorophenyl)methyl-4,4-dimethyl-3-isoxazolidinone and mesotrione, were diluted with water to provide the appropriate test rate concentration.
(§2) The test weeds were barnyardgrass (BG) (Echinochloa crus-galli), jimsonweed (PA) (Datura stramonium), velvetleaf (VL) (Abutilon theophrasti), common cockelbur (CC) (Xanthium strumarium) and hairy beggarticks (HB) (Bidens pilosa). Crops included in the evaluation were field corn and sorghum.
(§3) For pre-emergence testing, four disposable fiber flats (6″ by 10″) for each rate of application of each herbicide solution were filled with top soil, to which seeds of each species were planted in furrows made by a template pressed on the top of the soil. The furrows with seeds were covered with soil and were watered well before application of the test compounds. Flats designated for treatment were placed in a spray chamber having a static platform and a movable sprayer and height of the spray nozzle was 10.5 inches above the soil level. Once the sprayer was calibrated using water for spray volume of 30 gallons per acre, flats were sprayed with sprayer at a speed to receive a coverage equivalent of 30 gallons per acre.
(§4) The application rates are those shown in Table 4 below for the individual herbicidal solutions and the herbicide compositions of the present invention. The pre-emergence flats were immediately placed in the greenhouse and watered lightly after treatment. Thereafter they were regularly watered and fertilized for the duration of the test. The control of weeds and injury to crops was evaluated in each experimental test at 28 days after treatment (DAT). […] Percent control was determined by a method similar to the 0 to 100 rating system disclosed in “Research Methods in Weed Science,” 2nd ed., B. Truelove, Ed.; Southern Weed Science Society; Auburn University, Auburn, Ala., 1977.

Data set [5] has as its system sweet corn, yellow corn, and sorghum. The settings on record: PRE; crop and rate in the words.
Text: Treatments were also applied ot sweet corn, yellow corn, and sorghum.
Treatments were applied before the emergence of Jimsonweed, velvetleaf, hairy beggarticks, common cocklebur, barnyardgrass, sweet corn, yellow corn, and sorghum. Plant species were planted in fiber flats (6″×10″) containing Pennington soil and flats were watered well before application and watered lightly after application. Flats were watered and fertilized routinely after treatment application.
For data set [6], the system named is jimsonweed. Description: Ex5 PRE greenhouse, % control. The class given is in vivo, Datura stramonium. The settings on record: 28 DAT, g ai/ha by row: r10-26 2,4-DC 50/100/200 (3 rows each) + mesotrione 25/50/100 (cycling). As for the experimental part:
as §1, §2, §3, §4

Data set [7] concerns barnyardgrass (BG). Description: Ex5 PRE greenhouse, % control. It counts as in vivo, Echinochloa crus-galli. The settings on record: 28 DAT, g ai/ha by row: r10-26 2,4-DC 50/100/200 (3 rows each) + mesotrione 25/50/100 (cycling). As for the experimental part:
as §1, §2, §3, §4

Data set [8] deals with weeds; Sugarcane (var. CTC 20). Description: Ex17 PRE greenhouse. It counts as in vivo. The settings on record: weed and rate in the words. As for the experimental part: In this example a study was conducted to determine weed efficacy and sugarcane injury when 2,4 DC or isoxaflutole are applied either alone or tank-mix as preemergence against the weeds: Ivyleaf morningglory (Ipomoea hederacea, IPOHE), hairy beggartickss (Bidens pilosa, BIDPI), yellow nutsedge (Cyperus esculentus, CYPES), large crabgrass (Digitaria sanguinalis, DIGSA), and redroot pigweed (Amaranthus retroflexus, AMARE). The crop tested in this study was Sugarcane (var. CTC 20).
To determine weed efficacy and sugarcane selectivity, 2,4 DC (SC 36%) and isoxaflutole (Balance Flexx®, 20%) were applied PRE either alone or as tank-mix partners at rates mentioned below. 2,4 DC was applied at 500, 750, and 1000 g ai/ha while isoxaflutole was applied at 80, 100, and 120 g ai/ha. […] Treatments were applied PRE to sugarcane (var. CTC 20), ivyleaf morningglory, hairy beggarticks, yellow nutsedge, large crabgrass, and redroot pigweed. Weed species were planted in fiber flats (6″×10″) containing Pennington soil. Soil was watered before application and watered lightly after application. Flats were watered and fertilized routinely after treatment application.

Data set [9] concerns common lambsquarters (CL). Description: Ex2 PRE greenhouse, % control. The class given is in vivo, Chenopodium album. The settings on record: 28 DAT, g ai/ha by row: r12-40 2,4-DC 31.25/62.5/125/250/375 (3 rows each) + metazachlor 250/500/750 (cycling), r42-46 2,4-DC 31.25/62.5/125/250/375, r47-49 metazachlor 250/500/750. As to the method:
(§5) Test compositions containing 2,4 DC Example 1B and metazachlor (Butisan® S, 43.1% active ingredient, BASF) and mixtures of 2-(2,4-dichlorophenyl)methyl-4,4-dimethyl-3-isoxazolidinone and metazachlor, were diluted with water to provide the appropriate test rate concentrations.
(§6) The test crops were wheat and canola (Brassica napus), the test weeds were Italian ryegrass (IR) (Lolium perenne. multiflorum), annual bluegrass (AB) (Poa annua), common lambsquarters (CL) (Chenopodium album), littleseed canarygrass (LC) (Phalaris minor), common chickweed (CC) (Stellaria media), and corn poppy (CP) (Papaver rhoeas).
(§7) For pre-emergence testing, four disposable fiber flats (6″ by 10″) for each rate of application of each herbicide solution were filled with top soil, to which seeds of each species were planted in furrows made by a template pressed on the top of the soil. The furrows were covered with soil after planting the seed and were watered well before application of the test compounds. […]
(§8) The control of weeds was evaluated in each experimental test at 21 days after treatment (DAT) for corn poppy and wheat and 28 DAT for all other species. […]
(§9) Percent control was determined by a method similar to the 0 to 100 rating system disclosed in “Research Methods in Weed Science,” 2nd ed., B. Truelove, Ed.; Southern Weed Science Society; Auburn University, Auburn, Ala., 1977.

For data set [10], the system named is littleseed canarygrass (LC). Description: Ex2 PRE greenhouse, % control. It counts as in vivo, Phalaris minor. Particulars: 28 DAT, g ai/ha by row: r12-40 2,4-DC 31.25/62.5/125/250/375 (3 rows each) + metazachlor 250/500/750 (cycling).
Text: Fiber flats designated for treatment were placed in a spray chamber having a static platform and a movable sprayer and height of the spray nozzle was 10.5 inches above the soil level. Once the sprayer was calibrated using water for spray volume of 30 gallons per acre, flats were sprayed with sprayer at a speed to receive a coverage equivalent of 30 gallons per acre. […] The pre-emergence flats were immediately placed in the greenhouse and watered lightly after treatment. Thereafter they were regularly watered and fertilized for the duration of the test.
Data set [11] concerns weeds; Wheat and canola. Description: Ex27 PRE greenhouse. The class given is in vivo. Particulars: weed and rate in the words. From the text: The weeds tested in this study were Italian ryegrass (Lolium perenne. multiflorum, LOLMU), wild mustard (Sinapis arvensis, SINAR), annual bluegrass (Poa annua POAAN), wild oat (Avena fatua, AVEFA), blackgrass (Alopecurus myosuroides, ALOMY), common lambsquarters (Chenopodium album […] (Phalaris minor, PHAMI), common chickweed (Stellaria media, STEME), corn poppy (Papaver rhoeas PAPRH). The crops tested were Wheat and canola. […] Treatments were applied before the emergence of Italian ryegrass, wild oat, blackgrass, littleseed canarygrass, common chickweed, common lambsquarters, corn poppy, wild mustard, annual bluegrass, canola, and wheat. […] Flats were watered and fertilized routinely after treatment application. […] Wheat and corn poppy were rated at 14 and 21 DAT only.

Data set [12] relates to weeds. Description: Ex18 PRE greenhouse. It counts as in vivo. Particulars: weed and rate in the words. The source says: Additional treatments included application of metazachlor (Butisan®, 43.1%) at 750 g ai/ha, napropamide (Devrinol DF®, 50%) at 1260 g ai/ha, and dimethachlor (Teridox®, 48%) at 1000 g ai/ha. […] Treatments were applied just after the seeding of annual bluegrass, cheat, wild oat, quackgrass, field violet, blackgrass, littleseed canarygrass, silky windgrass, yellow foxtail, and goosegrass. […] Flats were watered and fertilized routinely after treatment application. Each treatment was replicated three times.

Data set [13] deals with corn poppy (CP). Description: Ex2 PRE greenhouse, % control. The settings on record: 21 DAT, g ai/ha by row: r12-40 2,4-DC 31.25/62.5/125/250/375 (3 rows each) + metazachlor 250/500/750 (cycling), r42-46 2,4-DC 31.25/62.5/125/250/375, r47-49 metazachlor 250/500/750. The class given is in vivo, Papaver rhoeas. As for the experimental part: as §5, §6, §7, §8, §9
In data set [14] the test system is common chickweed (CC). Description: Ex2 PRE greenhouse, % control. The class given is in vivo, Stellaria media. Particulars: 28 DAT, g ai/ha by row: r12-40 2,4-DC 31.25/62.5/125/250/375 (3 rows each) + metazachlor 250/500/750 (cycling), r42-46 2,4-DC 31.25/62.5/125/250/375, r47-49 metazachlor 250/500/750. As for the experimental part:
as §5, §6, §7, §8, §9

The test system of data set [15] is annual bluegrass (AB). Description: Ex2 PRE greenhouse, % control. Particulars: 28 DAT, g ai/ha by row: r12-40 2,4-DC 31.25/62.5/125/250/375 (3 rows each) + metazachlor 250/500/750 (cycling), r42-46 2,4-DC 31.25/62.5/125/250/375, r47-49 metazachlor 250/500/750. It counts as in vivo, Poa annua. As for the experimental part:
as §5, §6, §7, §8, §9

Data set [16] has as its system Italian ryegrass (IR). Description: Ex2 PRE greenhouse, % control. The class given is in vivo, Lolium perenne. multiflorum. The settings on record: 28 DAT, g ai/ha by row: r12-40 2,4-DC 31.25/62.5/125/250/375 (3 rows each) + metazachlor 250/500/750 (cycling). As to the method: as §5, §6
For pre-emergence testing, four disposable fiber flats (6″ by 10″) for each rate of application of each herbicide solution were filled with top soil, to which seeds of each species were planted in furrows made by a template pressed on the top of the soil. The furrows were covered with soil after planting the seed and were watered well before application of the test compounds.
Fiber flats designated for treatment were placed in a spray chamber having a static platform and a movable sprayer and height of the spray nozzle was 10.5 inches above the soil level. Once the sprayer was calibrated using water for spray volume of 30 gallons per acre, flats were sprayed with sprayer at a speed to receive a coverage equivalent of 30 gallons per acre. The application rates are those shown in Table 1 below for the individual herbicidal solutions and the herbicide compositions of the present invention. The pre-emergence flats were immediately placed in the greenhouse and watered lightly after treatment. Thereafter they were regularly watered and fertilized for the duration of the test.
The control of weeds was evaluated in each experimental test at 21 days after treatment (DAT) for corn poppy and wheat and 28 DAT for all other species. The results, shown as an average of the replications were compared with results observed in untreated control flats in the same tests.
as §9

The mark [17] stands for this setting: r28-30 2,4-DC 50/100/200, r31-33 mesotrione 25/50/100, 25 g ai/ha.
The mark [18] stands for this setting: r28-30 2,4-DC 50/100/200, r31-33 mesotrione 25/50/100, 50 g ai/ha.
The mark [19] stands for this setting: r28-30 2,4-DC 50/100/200, r31-33 mesotrione 25/50/100, 100 g ai/ha.
Where [20] appears, read: r42-46 2,4-DC 31.25/62.5/125/250/375, r47-49 metazachlor 250/500/750, 250 g ai/ha.
Setting [21] is: r42-46 2,4-DC 31.25/62.5/125/250/375, r47-49 metazachlor 250/500/750, 500 g ai/ha.

With `CC1(C)CON(Cc2cc(Cl)ccc2Cl)C1=O` [2,5-DC, 2-(2,5-dichlorophenyl)methyl-4,4-dimethyl-3-isoxazolidinone], the “sorghum safety in words” value in [1] is recorded as “safe on sorghum at rates ranging from 31 to 125 g ai/ha irrespective of rating timings”.
For `CS(=O)(=O)c1ccc(C(=O)C2C(=O)CCCC2=O)c([N+](=O)[O-])c1` [mesotrione], the “weed control in words” value in [2] is “alone gave control of velvetleaf and Jimsonweed at medium or highest rate while it controlled cocklebur and hairy beggarstick at the highest rate only”; in [3], “at 105 g controlled all weeds except morningglory”; in data set [8], “at 105 g controlled all weeds except ivyleaf morningglory”. Also, the results for the “% Control VL” value in data set [4] (setting [17]), in data set [4] (setting [18]) and in data set [4] (setting [19]) were 73%, 87% and 100%, respectively. Further, the “crop safety in words” value in data set [5] is “alone was safe on sweet corn and yellow corn at all three rates; safe on sorghum at 25 and 50 g”. Besides, the “% Control JW” value in data set [6] (setting [17]) came out at 68%; in data set [6] (setting [18]) it was 90%; in [6] (setting [19]), 93%. Moreover, the “% Control BG” value in data set [7] (setting [17]) came to 48%; in [7] (setting [18]), 61%; in [7] (setting [19]) it was 73%.
For the molecule `Cc1cccc(C)c1N(Cn1cccn1)C(=O)CCl` [Metazachlor, metazachlor], the “% Control CL” value in [9] is given as 100%. The “% Control LC” value in data set [10] (setting [20]) is 99%; in data set [10] (setting [21]) it was 100%. Also, the “weed control in words” value was “alone controlled blackgrass at 750 g” in [11] and “controlled all weeds” in [12]. For the same molecule, in data set [13], the “% Control CP” value came out at 100%. Moreover, the “% Control CC” value in data set [14] is given as 100%. In addition, the “% Control AB” value in [15] came out at 100%. The “% Control IR” value came to 96% in data set [16] (setting [20]); 98% in data set [16] (setting [21]); 99% in data set [16] (r42-46 2,4-DC 31.25/62.5/125/250/375, r47-49 metazachlor 250/500/750, 750 g ai/ha).

The record behind these values is US12616203B2, “Use of 3-isoxazolidinones compounds as selective herbicides” (FMC Corporation, priority 2014, dated 2026).
